In patent EP4813972A1, “CRYSTAL FORM OF BENZENE SULFONATE CONTAINING PIPERIDINE RING COMPOUND, AND PREPARATION METHOD THEREFOR AND USE THEREOF” (Shanghai Curegene Pharmaceutical Co., Ltd., priority 2023, dated 2025):
Values after ≈ are worked out from the molar mass of the structure shown.

Assays:
[1] = Stability study of crystal forms (crystal form status by XRPD after storage); assay type: physicochemical; details: 14 days
Experimental: Test method: The sample was prepared on a zero-background silicon wafer by gently pressing to obtain a flat surface. About 10-20 mg of a sample was used for XRPD analysis.

[2] = Solubility study of crystal forms (aqueous HCl pH 1 / 20 mM phosphate buffer pH about 7, HPLC analysis); assay type: physicochemical
Experimental: The detailed parameters were as follows:
An aqueous HCl solution at pH 1 was prepared. […] After dissolution by stirring, the solution was adjusted to pH = 1 with 1 N NaOH or 1 N HCl. The timing was started, and after T = 3 h, the pH was measured. […] When T = 4 h, the dissolution status was observed, and a dilution factor was selected according to the dissolution status. 50% ACN was used as a diluent for HPLC analysis. When T = 24 h, the dissolution state was observed. With reference to the concentration data at 4 h and the dissolution state at 24 h, a dilution factor was selected, and HPLC analysis was performed. The solubility was calculated according to the HPLC analysis results described above.
The aqueous HCl solution at pH 1 in the step described above was replaced with a 20 mM phosphate buffer solution at pH of about 7, and the steps described above were repeated. The solubility was calculated.

- Crystal form after treatment ([1]; 25 °C/60% RH, open container): Crystal form F1
- Crystal form after treatment ([1]; Sealed container at 2-8 °C): Crystal form F1
- Crystal form after treatment ([1]; Sealed container at 40 °C): Crystal form F1
- Crystal form after treatment ([1]; Sealed container at 60 °C): Crystal form F1
- solubility at 4 h ([2]; 20 mm phosphate buffer, pH=7, 4 h): 9.89 mg/mL (≈ 21 mM)
- solubility at 24 h ([2]; 20 mm phosphate buffer, pH=7, 24 h): 6.14 mg/mL (≈ 13 mM)
- solubility at 4 h ([2]; aqueous hcl, pH=1, 4 h): 11.5 mg/mL (≈ 24.4 mM)
- solubility at 24 h ([2]; aqueous hcl, pH=1, 24 h): 11.4 mg/mL (≈ 24.1 mM)
- Dissolution status ([2]; pH=1, 4 h): Clear solution
- Dissolution status ([2]; pH=1, 24 h): Clear solution
- Dissolution status ([2]; pH=7, 4 h): Clear solution
- Dissolution status ([2]; pH=7, 24 h): Clear solution
Structure (SMILES): COC(=O)[C@H](c1ccccc1Cl)N1CC[C@@H](SCOC(=O)OC(C)C)/C(=C\C(=O)O)C1 [Crystal form F1]
